Entries after “also recorded” stand apart in the source; their conditions may differ.
Experiments:
[1] = tested on: 786-0 (human perirenal cell adenocarci); experiment: Cytotoxicity, Example 8; format: cell-based; conditions: 786-0, 72 h
Procedure: (§1) Tumor or normal cells were cultured in 96-well plates with the test compound in 200 μl of RPMI supplemented with 10% fetal bovine serum (Hyclone, Salt Lake City, Utah) at 37° C. in a humidified atmosphere containing 5% CO2 in air for 72 hours. Sulforhodamine B dissolved in 1% acetic acid was added, and the plates were incubated for 30 minutes at ambient temperature, washed with 1% acetic acid, and blotted. To the air-dried plates were added 100 μl of […] unbuffered TRIS base (pH 10.5) with shaking. The optical densities of the plates were measured with a microplate reader (Molecular Devices Thermomax) at 540 nm. The concentration of compound required to reduce the absorbance to 50% of control samples was recorded as IC50.
(§2) NHDF: Normal human dermal fibroblast (available from Clouelics Corp., San Diego, Calif.); HLF-1: Normal human diploid lung; W1-38; Normal human diploid lung; CHO; Chinese hamster ovary; SK-MEL-28: Melanoma; CAPAN-1: Pancreatic carcinoma; H322: lung carcinoma; MCF-7; Breast carcinoma; BT-549; Human breast ductal carcinoma; OVCAR-3: Human ovarian carcinoma; HT-29: Human adenocarcinoma, colon; SIHA: Human squamous carcinoma crvx; 786-0: Human perirenal cell adenocarci; PC-3: Human prostate adenocarcinoma; HL-60: Human promyelomic leukemia; MOLT-4: Human T-cell leukemia. All cell lines except NHDF are available from the American Tissue Culture Collection, Rockville, Md.

[2] = tested on: HLF-1 (normal human diploid lung); experiment: Cytotoxicity, Example 8; format: cell-based; conditions: HLF1, 72 h
Procedure: as §1, §2

MCF-7 (breast carcinoma) [3] = experiment: Cytotoxicity, Example 8; format: cell-based; conditions: Homo sapiens, MCF7, 72 h
Procedure: as §1, §2

[4] = tested on: BT-549 (human breast ductal carcinoma); experiment: Cytotoxicity, Example 8; format: cell-based; conditions: BT-549, 72 h
Procedure: as §1, §2

[5] = tested on: NHDF (normal human dermal fibroblast); experiment: Cytotoxicity, Example 8; format: cell-based; conditions: 72 h
Procedure: as §1, §2

H322 (lung carcinoma) [6] = experiment: Cytotoxicity, Example 8; format: cell-based; conditions: NCI-H322, 72 h
Procedure: as §1, §2

[7] = tested on: OVCAR-3 (human ovarian carcinoma); experiment: Cytotoxicity, Example 8; format: cell-based; conditions: OVCAR-3, 72 h
Procedure: as §1, §2

SK-MEL-28 (melanoma) = experiment: Cytotoxicity, Example 8; format: cell-based; conditions: Homo sapiens, SK-MEL-28, 72 h
Procedure: as §1, §2

[8] = tested on: CAPAN-1 (pancreatic carcinoma); experiment: Cytotoxicity, Example 8; format: cell-based; conditions: Homo sapiens, CAPAN-1, 72 h
Procedure: as §1, §2

[9] = tested on: CHO (Chinese hamster ovary); experiment: Cytotoxicity, Example 8; format: cell-based; conditions: Cricetulus griseus, 72 h
Procedure: as §1, §2

[10] = tested on: S1HA (human squamous carcinoma crvx); experiment: Cytotoxicity, Example 8; format: cell-based; conditions: 72 h
Procedure: as §1, §2

[11] = tested on: HT-29 (human adenocarcinoma, colon); experiment: Cytotoxicity, Example 8; format: cell-based; conditions: HT-29, 72 h
Procedure: as §1, §2

[12] = tested on: W1-38 (normal human diploid lung); experiment: Cytotoxicity, Example 8; format: cell-based; conditions: W138, 72 h
Procedure: as §1, §2

[13] = tested on: PC-3 (human prostate adenocarcinoma); experiment: Cytotoxicity, Example 8; format: cell-based; conditions: 72 h
Procedure: as §1, §2

[14] = tested on: BALB/c 3T3 (normal mouse embryo); experiment: Cytotoxicity (sulphorhodamine B), normal cell line, Table 1B; format: cell-based; conditions: BALB/c3T3, 72 h
tubulin / microtubules = experiment: Tubulin polymerization-depolymerization (CaCl2-induced depolymerization of microtubules); format: biochemical; conditions: 10^-6 M; 1.0 mg/mL tubulin; CaCl2 0.25 mM after 16 minutes; 37° C.; initial, no prior release
Procedure: Tubulin polymerization to microtubules is promoted by GTP, whereas CaCl2 causes depolymerization of microtubules back to tubulin (FIG. 3A). […] The designed protaxol 5 was tested for its ability to stabilize microtubules formed from tubulin via the action of GTP. […] These findings are in agreement with the previously reported loss of activity resulting from blocking the C-2' hydroxyl group.
Tubulin polynerization-depolymerization experiments with taxol and designed protaxol 5 are illustrated in FIG. 3. CaCl2 -promoted depolymerization of microtubules was suppressed by taxol and protaxol 5 (after taxol release).
These measurements may be conducted at 37° C. following a recently developed procedure described by R. Merlock and W. Wrasidlo (Analytical Biochemistry, 1993). In each case 1.0 mM GTP may be employed to promote initial polymerization of tubulin.
D: Tubulin (1.0 mg/mL) with protaxol 5 (10^-6 M) after release of taxol (as determined by HPLC, essentially quantitative conversion).

[15] = tested on: broad spectrum of cell lines; experiment: Cytotoxicity against a broad spectrum of cell lines (overall); conditions: Table 1B
Procedure: The protaxols synthesized in this study were tested against a broad spectrum of cell lines ranging from the multiple-drug resistant ovarian (OVCAR-3) to lung (H-322) and leukemia (MOLT-4) cells in order to assess cytotoxicity, cell-type selectivity, and duration of action.
The cytotoxicities were determined using the sulphorhodamine B assay method (Skehan, P. et al. J. Nat. Canc. Inst. 82, 1107 (1990)).

[16] = tested on: OVCAR-3 (ovarian carcinoma); experiment: Cytotoxicity (sulphorhodamine B), cancer cell line, Table 1B; format: cell-based; conditions: Homo sapiens, OVCAR-3, 72 h
L1210 (mouse leukaemia) = experiment: as above; format: cell-based; conditions: L1210, 72 h
SK (melanoma) = experiment: as above; format: cell-based; conditions: 72 h
SIHA (cervix carcinoma) = experiment: as above; format: cell-based; conditions: Homo sapiens, SiHa, 72 h
physchem = experiment: physchem
Procedure: The solubilities of the synthesized protaxols in D2 O were determined by 1H NMR spectroscopy.
The resulting mixture was centrifuged for 20 minutes and the supernatant saturated solution was analysed by ^1 H NMR spectroscopy using a Bruker AMX-400 instrument and methanol or pyridine as internal standard. The concentration of the compound was determined by comparing several signals with the CH3 signal of methanol or the NCH signal of pyridine.

[17] = tested on: PC-3 (prostate carcinoma); experiment: Cytotoxicity (sulphorhodamine B), cancer cell line, Table 1B; format: cell-based; conditions: Homo sapiens, 72 h
[18] = tested on: CHO (Chinese hamster ovary); experiment: Cytotoxicity (sulphorhodamine B), normal cell line, Table 1B; format: cell-based; conditions: Cricetulus griseus, 72 h
[19] = tested on: UCLA-P-3 (lung carcinoma); experiment: Cytotoxicity (sulphorhodamine B), cancer cell line, Table 1B; format: cell-based; conditions: Homo sapiens, UCLA P-3, 72 h
HT-29 (colon carcinoma) = experiment: as above; format: cell-based; conditions: Homo sapiens, HT-29, 72 h
Capan-1 (pancreatic) = experiment: as above; format: cell-based; conditions: Homo sapiens, CAPAN-1, 72 h
[20] = tested on: BT-549 (breast carcinoma); experiment: as above; format: cell-based; conditions: Homo sapiens, BT-549, 72 h
NHDF (normal human skin) = experiment: Cytotoxicity (sulphorhodamine B), normal cell line, Table 1B; format: cell-based; conditions: 72 h
[21] = tested on: CHO (normal human mammary); experiment: as above; format: cell-based; conditions: Homo sapiens, 72 h
H322 (lung carcinoma) [22] = experiment: Cytotoxicity (sulphorhodamine B), cancer cell line, Table 1B; format: cell-based; conditions: NCI-H322, 72 h
[23] = tested on: RPMI-7666 (normal human PBLs); experiment: Cytotoxicity (sulphorhodamine B), normal cell line, Table 1B; format: cell-based; conditions: 72 h
[24] = tested on: MOLT-4 (T-cell leukaemia); experiment: Cytotoxicity (sulphorhodamine B), cancer cell line, Table 1B; format: cell-based; conditions: Homo sapiens, MOLT-4, 72 h
[25] = cited from earlier work
MCF-7 (breast carcinoma) [26] = experiment: Cytotoxicity (sulphorhodamine B), cancer cell line, Table 1B; format: cell-based; conditions: Homo sapiens, MCF7, 72 h
[27] = tested on: HL-60 (promyel carcinoma); experiment: as above; format: cell-based; conditions: Homo sapiens, HL-60, 72 h
[28] = tested on: 786-0 (renal cell carcinoma); experiment: as above; format: cell-based; conditions: Homo sapiens, 786-0, 72 h

Compound: CC(=O)O[C@H]1C(=O)[C@@]2(C)[C@H]([C@H](OC(=O)c3ccccc3)[C@]3(O)C[C@H](OC(=O)[C@H](O)[C@@H](NC(=O)c4ccccc4)c4ccccc4)C(C)=C1C3(C)C)[C@]1(OC(C)=O)CO[C@@H]1C[C@@H]2O [Taxol]
- IC50 [1]: 0.184 µM
- IC50 [2]: 63 µM
- IC50 (MCF-7 (breast carcinoma) [3]): 64.4 µM
- IC50 [4]: 44.6 µM
- IC50 [5]: 208 µM
- IC50 (H322 (lung carcinoma) [6]): 122 µM
- IC50 [7]: 0.098 µM
- IC50 (SK-MEL-28 (melanoma)): 100 µM
- IC50 [8]: 0.098 µM
- IC50 [9]: 53.5 µM
- IC50 [10]: 1110 µM
- IC50 [11]: 0.098 µM
- IC50 [12]: 60.6 µM
- IC50 [13]: 69.1 µM
- IC50 [14]: 1 µM
- prevention of CaCl2-induced depolymerization of microtubules (tubulin / microtubules): stabilizes microtubules against CaCl2-induced depolymerization; also recorded: suppressed; also recorded: did not cause depolymerization
- selectivity against cancer cells versus normal cells [15]: rather impressive selectivity
- IC50 [16]: < 0.001 µM
- IC50 (L1210 (mouse leukaemia)): 1 µM
- IC50 (SK (melanoma)): 10 µM
- IC50 (SIHA (cervix carcinoma)): 10 µM
- Water solubility (physchem): < 0.10 mg/mL
- IC50 [17]: 1 µM
- IC50 [18]: 100 µM
- IC50 [19]: < 0.001 µM
- IC50 (HT-29 (colon carcinoma)): < 0.001 µM
- IC50 (Capan-1 (pancreatic)): < 0.001 µM
- IC50 [20]: 0.001 µM
- IC50 (NHDF (normal human skin)): 1 µM
- IC50 [21]: 100 µM
- IC50 (H322 (lung carcinoma) [22]): 0.001 µM
- IC50 [23]: 100 µM
- IC50 [24]: < 0.001 µM
- water solubility of taxol [25]: only slightly soluble in water; also recorded: essentially insoluble in water
- IC50 (MCF-7 (breast carcinoma) [26]): < 10 µM
- IC50 [27]: < 0.001 µM
- IC50 [28]: 0.1 µM

Reference: patent US5817840A, “Water soluble taxol derivatives” (The Scripps Research Institute, priority 1997, dated 1998)
